In patent US11337971B2, “Dopamine D3 receptor selective antagonists/partial agonists and uses thereof” (THE UNITED STATES OF AMERICA, AS REPRESENTED BY THE …, priority 2018, dated 2022):
“Also recorded” adds a separate entry of the source.

Columns and labels:
Male Long-Evans rats [1] = experiment: Hot plate test of oxycodone-induced antinociceptive response in rats; type: in vivo, rat; settings: oxycodone in vehicle pretreated group
Protocol: Nociceptive tests were performed using a hot plate device (Model 39, IITC Life Science Inc., Woodland Hills, Calif., USA). The rat was put inside a transparent cage on the hot plate (52±0.2° C.). When thermal nociceptive signs such as licking, stomping the hind paw, or jumping from the plate appeared, the rat was immediately removed from the cage. […] The cut-off time for the test was 60 s to avoid tissue damage.
These experiments involved 8 groups of rats (n=8-9/group) in 2 series of repeated testing: 4 groups were used to test the effects of compound (±)-29 pretreatment on the time course of antinociception induced by oxycodone at a single dose, and another 4 groups were used to test the effects of compound (±)-29 pretreatment on the antinociception induced by various oxycodone doses. Each rat was first habituated to the testing environment for 1 h, followed by placement on the hot plate without treatment to obtain baseline response latencies. The groups in the time course test received baseline testing. Then, group 1 was pretreated with vehicle, and the other 3 groups were pretreated with a dose of compound (±)-29 (5, 15 or 25 mg/kg, i.p.). Fifteen min following the pretreatment, each rat was challenged with a saline injection (1 ml/kg) and, 30 min later, tested for the second time on the hot plate. On the next day, each group received the same pretreatment as on day 1, but challenged with oxycodone (2 mg/kg, i.p.), and each rat was then tested again at 30-, 60- and 120-min following oxycodone challenge. […] Data were calculated as % of maximum percentage effect (% MPE) using the formula: (treatment value−basal value)/(cutoff value−basal value)×100.
Methods: Compound (±)-29 was administered 15 minutes before saline or oxycodone challenge at 5 mg/kg, 15 mg/kg, and 25 mg/kg. […] The rat was then immediately removed from the hot plate and the time latency was recorded.

Male Long-Evans rats [2] = settings: Rice et al, 2012; cited from earlier work
[3] = test system: opioid-induced conditioned place preference; settings: Ashby et al, 2003; cited from earlier work
rhesus monkeys = experiment: Thermal tail withdrawal model of oxycodone antinociception in rhesus monkeys; type: in vivo, rhesus monkey; settings: FIG. 6B

COc1ccc2c3c1O[C@H]1C(=O)CC[C@@]4(O)[C@@H](C2)N(C)CC[C@]314 [Oxycodone, reference compound]
% MPE, hot plate (Male Long-Evans rats [1]): significantly increased % MPE; also recorded: dose-dependently increased MPE %

N#Cc1ccc2c(c1)CCN(CCC1CCC(NC(=O)c3ccnc4ccccc34)CC1)C2 (stereo not shown) [SB-277011A]
CPA induced by naloxone-precipitated withdrawal (Male Long-Evans rats [2]): significantly blocked CPA induced by naloxone-precipitated withdrawal
opioid-induced conditioned place preference [3]: significantly inhibiting opioid-induced conditioned place preference

O=C1CC[C@@]2(O)[C@H]3Cc4ccc(O)c5c4[C@@]2(CCN3CC2CC2)[C@H]1O5 [naltrexone, reference compound]
effect on oxycodone antinociception (rhesus monkeys): deleterious effects on oxycodone antinociception
